PMC5168863, “Synthesis and functionalization of protease-activated nanoparticles with tissue plasminogen activator peptides as targeting moiety and diagnostic tool for pancreatic cancer” (Journal of Nanobiotechnology, 2016)
Residues, ends and D or L forms follow the SMILES beside them. *: point of attachment. 5FAM = O=C1OC2(c3ccc(O)cc3Oc3cc(O)ccc32)c2ccc(C(=O)*)cc21

Legend:
Gal-4 = molecular target: T1, Gal-4 (Homo sapiens, UniProt P56470); test: Microscale thermophoresis (MST) binding of t-PA peptides to galectin-4; settings: for Kd: MST, human galectin; for Fold diff.: versus rh t-PA protein
T1 sequence (P56470 1-323): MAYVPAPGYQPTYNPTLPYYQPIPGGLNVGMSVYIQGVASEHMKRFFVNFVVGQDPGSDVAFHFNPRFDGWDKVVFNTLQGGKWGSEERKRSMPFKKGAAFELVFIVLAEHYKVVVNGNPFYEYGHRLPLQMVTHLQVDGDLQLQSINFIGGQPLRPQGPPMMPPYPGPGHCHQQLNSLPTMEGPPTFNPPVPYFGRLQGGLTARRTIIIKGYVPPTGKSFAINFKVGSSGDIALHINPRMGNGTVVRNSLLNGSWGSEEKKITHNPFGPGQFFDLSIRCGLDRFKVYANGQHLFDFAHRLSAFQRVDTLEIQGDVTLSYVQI
Method: (§1) To investigate the binding efficiency of the short t-PA-ligands [10 to 29-AA-long peptides fluorescein or rhodamine-labelled] to galectin-1, we applied the microscale thermophoresis (MST) technology which allows quantitative analysis of protein interactions in solutions. By using MST, individual affinity constants between the different t-PA peptides and galectins (Gal-1, -3, -4) previously characterized to be over-expressed in PDAC were determined and compared to the recombinant human t-PA protein (rh t-PA) as presented in Table 2.
(§2) In order to investigate the binding properties of the modified t-PA-peptides [10-29 AA-long fluorescence-labeled peptides] as ligands to galectins, the microscale thermophoresis (MST) (Monolith NT.115 MST instrument, NanoTemper Technologies GmbH, Munich Germany) technology was employed. MST allows a quantitative analysis of protein interactions in solution and is based on the directed motion of molecules in temperature gradients generated locally by an infrared laser, whereas the molecular mobility in the temperature gradient is analyzed via fluorescence. MST is highly sensitive to all types of binding-induced changes of molecular properties like protein size, charge, hydration shell or conformation. The binding modes such as dimerization, cooperativity, and competition are quantifiable and adaptable to diverse requirements of different biomolecules. Therefore, MST turned out as an ideal method for the interaction studies of t-PA and t-PA-derived peptides with galectins.

Gal-3 = Gal-3 (Homo sapiens, UniProt P17931); test: Microscale thermophoresis (MST) binding of t-PA peptides to galectin-3; settings: for Kd: MST, human galectin; for Fold diff.: versus rh t-PA protein
Method: as §1, §2

Gal-1 = Gal-1 (Homo sapiens, UniProt P09382); test: Microscale thermophoresis (MST) binding of t-PA peptides to galectin-1; settings: for Kd: MST, human galectin; for Fold diff.: versus rh t-PA protein
Method: as §1, §2

Panc-1 = test: Flow cytometry, binding of peptide/NPs to Panc-1 cells; assay type: cell-based, human
Method: (§3) With the first flow cytometry experiments we analyzed the nanoparticle-core (Core CAN-maghemite (Ce-Fe2O3) and the t-PA-peptide1-lactose (t-PApep1lac) linked to the core. This was to determine whether the fluorescein-labelled t-PA-peptides, covalently linked to NPs, bind to Panc-1 and Su86.86 cells and if the cells are able to internalize the NPs. In a parallel set of experiments the binding of the t-PA-peptide alone (without linkage to NPs) to the pancreatic cancer cells was assessed. For the experimental set-up a concentration of t-PA peptide of 1.25 µM was applied and the cells were exposed to the NPs with and without peptides for different incubation periods of 2, 6, 12 and 24 h.
(§4) Flow cytometry (fluorescent-activated cell sorting/FACS) analysis was used to determine the binding of fluorescein-labeled t-PA-pep1Lac and t-PApep1-vectorized nanoparticles (CAN-Mag@PNPs-tPApep1Lac and CAN-Mag@PNPs-PEG-REGAcp-PEG/tPA-pep1Lac) on the surfaces of Panc-1 and SU.86.86 cells. Additional FACS analyses were performed to monitor concentration and time-dependent binding efficiency and changes caused by addition of competitors (galactose, lactose) or in the presence of active MMP-9, which cleaves the REGAcp sequence. Deshielding of CAN-Mag@PNPs-PEG-REGAcp-PEG/tPA-pep1Lac was carried out by pre-activated MMP-9 (20 µM proMMP-9 and 200 nM of catalytic domain cdMMP-3 in 100 mM Tris, 100 mM NaCl, 10 mM CaCl2, pH 7.4 for 2 h at 37 °C). The active MMP-9 (50 µl, 10 µM) was incubated in the presence of 450 µl NPs and subsequently added to cells. Nanoparticle-exposed cell monolayers (of 2 × 10^5 cells/2 ml medium in 6 well plates), with or without treatment, were harvested 2, 12, 24 h post-exposure using 1 mM EDTA–phosphate-buffered saline (PBS) detachment buffer, (Miltenyi GmbH, Bergisch Gladbach, Germany), washed 3 times in PBS, incubated for 45 min on ice and subsequently subjected to analysis in a BD™ LSR II flow cytometer and Software Program: BD FACSDiva 7.0 (Becton–Dickinson,)

Su.86.86 = test: Flow cytometry, binding of peptide/NPs to Su.86.86 cells; assay type: cell-based, human
Method: as §3, §4

Gal-3, sequence (P17931 whole entry): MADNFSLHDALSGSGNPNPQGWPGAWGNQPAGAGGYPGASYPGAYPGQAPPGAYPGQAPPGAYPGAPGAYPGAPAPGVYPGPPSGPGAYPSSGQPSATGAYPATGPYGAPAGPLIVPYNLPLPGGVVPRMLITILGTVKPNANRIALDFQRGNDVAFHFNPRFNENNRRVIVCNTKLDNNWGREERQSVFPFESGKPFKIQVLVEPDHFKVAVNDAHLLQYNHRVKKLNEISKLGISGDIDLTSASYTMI
Gal-1, sequence (P09382 whole entry): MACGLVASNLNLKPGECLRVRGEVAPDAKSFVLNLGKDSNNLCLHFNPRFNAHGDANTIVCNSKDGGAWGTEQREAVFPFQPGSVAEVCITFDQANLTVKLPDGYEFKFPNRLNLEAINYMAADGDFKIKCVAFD

Row | Compound | Kd (Gal-4; N-Fluo. labelled ligand) [µM] | Fold diff. (Gal-4; N-Fluo. labelled ligand) | Kd (Gal-3; N-Fluo. labelled ligand) [µM] | Fold diff. (Gal-3; N-Fluo. labelled ligand) | Kd (Gal-1; N-Fluo. labelled ligand) [µM] | Fold diff. (Gal-1; N-Fluo. labelled ligand) | Kd (Gal-4; C-Fluo. labelled ligand) [µM] | Fold diff. (Gal-4; C-Fluo. labelled ligand) | Percentage of cells labeled with nanoparticles (Panc-1; Panc-1, 2 h incubation) [%] | Percentage of cells labeled with nanoparticles (Panc-1; Panc-1, 12 h incubation) [%] | Percentage of cells labeled with nanoparticles (Panc-1; Panc-1, 24 h incubation) [%] | Percentage of cells labeled with nanoparticles (Su.86.86; Su.86.86, 2 h incubation) [%] | Percentage of cells labeled with nanoparticles (Su.86.86; Su.86.86, 12 h incubation) [%] | Percentage of cells labeled with nanoparticles (Su.86.86; Su.86.86, 24 h incubation) [%] | Kd (Gal-3; C-Fluo. labelled ligand) [µM] | Fold diff. (Gal-3; C-Fluo. labelled ligand) | Kd (Gal-1; C-Fluo. labelled ligand) [µM] | Fold diff. (Gal-1; C-Fluo. labelled ligand)
1 | CC(C)C[C@H](NC(=O)[C@H](C)NC(=O)[C@H](CO)NC(=O)[C@H](CO)NC(=O)[C@H](CC(N)=O)NC(=O)[C@H](Cc1c[nH]c2ccccc12)NC(=O)[C@H](CC(N)=O)NC(=O)[C@@H](NC(=O)[C@H](CS)NC(=O)[C@H](CCC(=O)O)NC(=O)[C@H](C)NC(=O)CNC(=O)[C@H](CO)NC(=O)[C@H](CCC(=O)O)NC(=O)[C@H](C)NC(=O)[C@@H](NC(=O)[C@H](CO)NC(=O)[C@H](Cc1c[nH]c2ccccc12)NC(=O)[C@@H](NC(=O)CNC(=O)c1ccc2c(c1)C(=O)OC21c2ccc(O)cc2Oc2cc(O)ccc21)[C@@H](C)O)[C@@H](C)O)[C@@H](C)O)C(=O)N[C@@H](C)C(=O)N[C@@H](CCC(N)=O)C(=O)N[C@@H](CCCCN)C(=O)N1CCC[C@H]1C(=O)N[C@@H](Cc1ccc(O)cc1)C(=O)N[C@@H](CO)C(=O)NCC(=O)N[C@@H](CCCNC(=N)N)C(=O)O [t-PA-pep-1] (5FAM-GTWSTAESGAECTNWNSSALAQKPYSGR-OH) | 34 | 1.5 | 272 | −35.4 | 141 | −28.7 | – | – | – | – | – | – | – | – | – | – | – | –
2 | CC(C)C[C@H](NC(=O)[C@H](C)NC(=O)[C@H](CO)NC(=O)[C@H](CO)NC(=O)[C@H](CO[C@@H]1O[C@H](CO)[C@@H](O[C@@H]2O[C@H](CO)[C@H](O)[C@H](O)[C@H]2O)[C@H](O)[C@H]1O)NC(=O)[C@H](Cc1c[nH]c2ccccc12)NC(=O)[C@H](CC(N)=O)NC(=O)[C@@H](NC(=O)[C@H](CS)NC(=O)[C@H](CCC(=O)O)NC(=O)[C@H](C)NC(=O)CNC(=O)[C@H](CO)NC(=O)[C@H](CCC(=O)O)NC(=O)[C@H](C)NC(=O)[C@@H](NC(=O)[C@H](CO)NC(=O)[C@H](Cc1c[nH]c2ccccc12)NC(=O)[C@@H](NC(=O)CN)[C@@H](C)O)[C@@H](C)O)[C@@H](C)O)C(=O)N[C@@H](C)C(=O)N[C@@H](CCC(N)=O)C(=O)N[C@@H](CCCCN)C(=O)N1CCC[C@H]1C(=O)N[C@@H](Cc1ccc(O)cc1)C(=O)N[C@@H](CO)C(=O)NCC(=O)N[C@@H](CCCNC(=N)N)C(=O)N[C@@H](CCCCNC(=O)c1ccc2c(c1)C(=O)OC21c2ccc(O)cc2Oc2cc(O)ccc21)C(=O)O [t-PA-pep-1lac] | – | – | – | – | 0.286 | 17 | 12.7 | 4.03 | 2.6 | 87.6 | 86.3 | 25.7 | 45.8 | 36.6 | 0.73 | 10.4 | 0.2 | 25
3 | rh t-PA protein: recombinant human t-PA protein [reference compound] | 51.2 | 1 | 7.68 | 1 | 4.92 | 1 | – | – | – | – | – | – | – | – | – | – | – | –
